This passage reports IC50 results from EP0955049B1, “6 Beta-Hydroxy - 6 alpha, 17 alpha - dimethylpregn - 4 - ene - 3,20 - dione, as an inhibitor of smooth muscle proliferation” (Wyeth, priority 1994, dated 1995).

The subject of this assay is Primary rat aorta smooth muscle cell cultures. The experiment in a line: smooth muscle cell proliferation ([3H]-thymidine incorporation). In kind it is cell-based. The following applies: [3H]-thymidine (0.5 µCi/mL), 24 hours at 37°C, M 199 plus 10% fetal bovine serum, cells per well as percent of control. From the text:
This utility was established by subjecting the compound to the following standard experimental test procedure:
Primary rat aorta smooth muscle cell cultures grown in media 199 (Gibco ) plus 10% fetal bovine serum (Gibco) were washed with calcium, magnesium free Dulbecco's phosphate buffered saline and trypsinized for five minutes. Cells were scraped from culture dishes with a rubber policeman and centrifuged. Cells were resuspended in M 199 plus 10% fetal bovine serum containing [^3H)-thymidine (0.5 µCi/mL) at 8-15,000 cells/mL, and were placed into plate wells. The novel intermediate was added to each well and the plates were incubated for 24 hours at 37°C. in a 5% CO2 atmosphere. The cultured cells were treated with trichloracetic acid to remove acid soluble proteins, leaving only cell superstructure and DNA. These cells were solubilized, counted by scintillation and the results compared with control to determine the number of cells per well, the difference in cells being expressed as a percent of control.

The IC50 is the concentration at which inhibition is half-maximal. For `CC(=O)[C@@]1(C)CC[C@H]2[C@@H]3C[C@@](C)(O)C4=CC(=O)CC[C@]4(C)[C@H]3CC[C@@]21C` [6β - Hydroxy - 6α,17α - dimethylpregn - 4 - ene - 3,20 - dione], the IC50 is 26.4 µM.
